Laboratory results taken from US8222219B2, “Glucopyranoside compound” (Mitsubishi Tanabe Pharma Corporation, priority 2003, dated 2012).

target: T1, human SGLT2 (Homo sapiens, UniProt P31639); assay: Assay for SGLT2 inhibition (14C-AMG uptake in CHOK1 cells expressing human SGLT2); type: cell-based; conditions: not given
T1 construct: expressed in transfected cells; host or cells: CHOK1 (CHO-K1) cells, kept under Geneticin selection
T1 sequence (P31639 1-672): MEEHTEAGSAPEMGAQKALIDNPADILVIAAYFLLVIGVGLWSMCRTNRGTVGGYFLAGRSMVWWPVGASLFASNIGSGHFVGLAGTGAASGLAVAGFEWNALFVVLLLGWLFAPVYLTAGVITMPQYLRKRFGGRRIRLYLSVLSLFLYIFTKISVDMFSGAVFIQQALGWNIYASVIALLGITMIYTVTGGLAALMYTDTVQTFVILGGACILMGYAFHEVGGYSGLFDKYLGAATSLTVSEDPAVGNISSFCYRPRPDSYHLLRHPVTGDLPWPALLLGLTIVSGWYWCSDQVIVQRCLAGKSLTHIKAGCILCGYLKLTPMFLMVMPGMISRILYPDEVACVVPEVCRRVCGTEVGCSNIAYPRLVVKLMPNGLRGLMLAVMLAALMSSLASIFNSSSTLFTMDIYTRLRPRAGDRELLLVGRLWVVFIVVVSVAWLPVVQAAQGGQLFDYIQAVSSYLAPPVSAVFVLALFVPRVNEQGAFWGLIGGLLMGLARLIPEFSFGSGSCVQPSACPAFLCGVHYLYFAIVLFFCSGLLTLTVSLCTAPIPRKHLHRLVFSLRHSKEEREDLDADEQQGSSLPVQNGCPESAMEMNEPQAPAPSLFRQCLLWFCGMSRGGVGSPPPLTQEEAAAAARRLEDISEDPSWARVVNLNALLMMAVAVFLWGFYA
Experimental: 1. Assay for SGLT2 Inhibition
Compounds described in the above examples were used for the SGLT2 inhibition assay.
CHOK1 cells expressing human SGLT2 were seeded in 24-well plates at a density of 400,000 cells/well in F-12 nutrient mixture (Ham's F-12) containing 10% fetal bovine serum, 400 μg/ml Geneticin, 50 units/ml sodium penicillin G (Gibco-BRL) and 50 μg/ml streptomycin sulfate. […] Test compounds were dissolved in DMSO. The final concentration of DMSO was 0.5%. The transport reaction was initiated by addition of 50 μl [^14C]-methyl-α-D-glucopyranoside (^14C-AMG) solution (final concentration, 0.5 mM). After incubation for 2 hours at 37° C., the uptake was stopped by aspiration of the incubation mixture, the cells were washed three times with ice-cold PBS. Then, cells were solubilized with 0.3 N NaOH and aliquots were taken for determination of radioactivity by a liquid scintillation counter. Nonspecific AMG uptake was defined as that which occurred in the presence of 100 μM of phlorizin, a specific inhibitor of sodium-dependent glucose cotransporter. Specific uptake was normalized for the protein concentrations measured by the method of Bradford.

Work on `Cc1ccc([C@@H]2O[C@H](CO)[C@@H](O)[C@H](O)[C@H]2O)cc1Cc1ccc(-c2ccc(F)cc2)s1` [Example 84] yielded an IC50 of 2.2 nM.

same assay, conditions: CHOK1 cells expressing human SGLT2; 14C-AMG uptake 0.5 mM, 2 hours at 37° C.; read-out: IC50

In order of rising IC50:
1. OC[C@H]1O[C@@H](c2ccc(Cl)c(Cc3ccc(-c4cscn4)s3)c2)[C@H](O)[C@@H](O)[C@@H]1O [Example 207]  0.6 nM
2. NC(=O)c1ccc(-c2ccc(Cc3cc([C@@H]4O[C@H](CO)[C@@H](O)[C@H](O)[C@H]4O)ccc3Cl)s2)cc1 [Example 193, 1-(β-D-glucopyranosyl)-3-(5-(4-carbamoylphenyl)-2-thienylmethyl)-4-chlorobenzene]  0.9 nM
3. Cc1ccc([C@@H]2O[C@H](CO)[C@@H](O)[C@H](O)[C@H]2O)cc1Cc1ccc(-c2cscn2)s1 [Example 210]  1 nM
4. Cc1ccc([C@@H]2O[C@H](CO)[C@@H](O)[C@H](O)[C@H]2O)cc1Cc1ccc(-c2cccs2)s1 [Example 211]  1.2 nM
5. Cc1ccc([C@@H]2O[C@H](CO)[C@@H](O)[C@H](O)[C@H]2O)cc1Cc1ccc(-c2cccc(F)c2)s1 [Example 83]  1.3 nM
6. OC[C@H]1O[C@@H](c2ccc(Cl)c(Cc3ccc(-c4cncs4)s3)c2)[C@H](O)[C@@H](O)[C@@H]1O [Example 204]  1.4 nM
7. NC(=O)c1ccc(-c2ccc(Cc3cc([C@@H]4O[C@H](CO)[C@@H](O)[C@H](O)[C@H]4O)ccc3Cl)s2)cn1 [Example 188, 1-(β-D-glucopyranosyl)-3-(5-(2-carbamoyl-5-pyridyl)-2-thienylmethyl)-4-chlorobenzene]  1.6 nM
8. OC[C@H]1O[C@@H](c2ccc(Cl)c(Cc3ccc(-c4cccc(F)c4)s3)c2)[C@H](O)[C@@H](O)[C@@H]1O [Example 78]  1.7 nM
9. Cc1ccc([C@@H]2O[C@H](CO)[C@@H](O)[C@H](O)[C@H]2O)cc1Cc1ccc(-c2cccc(OC(F)F)c2)s1 [Example 222]  1.8 nM
10. COc1cccc(-c2ccc(Cc3cc([C@@H]4O[C@H](CO)[C@@H](O)[C@H](O)[C@H]4O)ccc3C)s2)c1 [Example 90]  2 nM
11. Nc1ccc(-c2ccc(Cc3cc([C@@H]4O[C@H](CO)[C@@H](O)[C@H](O)[C@H]4O)ccc3Cl)s2)cc1 [Example 197, 1-(β-D-glucopyranosyl)-3-(5-(4-aminophenyl)-2-thienylmethyl)-4-chlorobenzene]  2 nM
12. Cc1ccc([C@@H]2O[C@H](CO)[C@@H](O)[C@H](O)[C@H]2O)cc1Cc1ccc(-c2cccc(C(F)F)c2)s1 [Example 130, 1-(β-D-glucopyranosyl)-3-(5-(3-difluoromethylphenyl)-2-thienylmethyl)-4-methylbenzene]  2.4 nM
13. COc1cccc(-c2ccc(Cc3cc([C@@H]4O[C@H](CO)[C@@H](O)[C@H](O)[C@H]4O)ccc3C)s2)n1 [Example 208]  2.4 nM
14. OC[C@H]1O[C@@H](c2ccc(Cl)c(Cc3ccc(-c4cccc(Cl)c4)s3)c2)[C@H](O)[C@@H](O)[C@@H]1O [Example 88]  2.6 nM
15. CCOc1cccc(-c2ccc(Cc3cc([C@@H]4O[C@H](CO)[C@@H](O)[C@H](O)[C@H]4O)ccc3C)s2)c1 [Example 212]  2.6 nM
16. Cc1cccc(-c2ccc(Cc3cc([C@@H]4O[C@H](CO)[C@@H](O)[C@H](O)[C@H]4O)ccc3C)s2)c1 [Example 86]  2.8 nM
17. Cc1ccc([C@@H]2O[C@H](CO)[C@@H](O)[C@H](O)[C@H]2O)cc1Cc1ccc(-c2cccc(Cl)c2)s1 [Example 89]  3 nM
18. OC[C@H]1O[C@@H](c2ccc(Cl)c(Cc3ccc(-c4ccnc(F)c4)s3)c2)[C@H](O)[C@@H](O)[C@@H]1O [Example 216]  3.3 nM
19. Cc1cccc(-c2ccc(Cc3cc([C@@H]4O[C@H](CO)[C@@H](O)[C@H](O)[C@H]4O)ccc3Cl)s2)c1 [Example 87]  3.4 nM
20. Cc1ccc([C@@H]2O[C@H](CO)[C@@H](O)[C@H](O)[C@H]2O)cc1Cc1ccc(-c2ccnc(F)c2)s1 [Example 217]  3.6 nM
21. COc1ccc(-c2ccc(Cc3cc([C@@H]4O[C@H](CO)[C@@H](O)[C@H](O)[C@H]4O)ccc3C)s2)cn1 [Example 209]  3.9 nM
22. Cc1ccc([C@@H]2O[C@H](CO)[C@@H](O)[C@H](O)[C@H]2O)cc1Cc1ccc(-c2ccc3c(c2)OCO3)s1 [Example 145]  4 nM
23. N#Cc1ccc(-c2ccc(Cc3cc([C@@H]4O[C@H](CO)[C@@H](O)[C@H](O)[C@H]4O)ccc3Cl)s2)cn1 [Example 187, 1-(β-D-glucopyranosyl)-4-chloro-3-(5-(2-cyano-5-pyridyl)-2-thienylmethyl)benzene]  4.3 nM
24. CCOc1cccc(-c2ccc(Cc3cc([C@@H]4O[C@H](CO)[C@@H](O)[C@H](O)[C@H]4O)ccc3Cl)s2)c1 [Example 72]  4.6 nM
25. Cc1ccc([C@@H]2O[C@H](CO)[C@@H](O)[C@H](O)[C@H]2O)cc1Cc1ccc(-c2ccc(C#N)nc2)s1 [Example 186, 1-(β-D-glucopyranosyl)-3-(5-(2-cyano-5-pyridyl)-2-thienylmethyl)-4-methylbenzene]  5.4 nM
26. Cc1ccc([C@@H]2O[C@H](CO)[C@@H](O)[C@H](O)[C@H]2O)cc1Cc1ccc(-c2ccc(F)c(C#N)c2)s1 [Example 185, 1-(β-D-glucopyranosyl)-4-methyl-3-(5-(3-cyano-4-fluorophenyl)-2-thienylmethyl)benzene]  5.6 nM
27. CCOc1ccc(-c2ccc(Cc3cc([C@@H]4O[C@H](CO)[C@@H](O)[C@H](O)[C@H]4O)ccc3Cl)s2)cc1 [Example 71]  6.6 nM
28. Cc1ccc([C@@H]2O[C@H](CO)[C@@H](O)[C@H](O)[C@H]2O)cc1Cc1ccc(-c2ccc(C#N)c(F)c2)s1 [Example 219]  6.7 nM
29. OC[C@H]1O[C@@H](c2ccc(F)c(Cc3ccc(-c4cccc(F)c4)s3)c2)[C@H](O)[C@@H](O)[C@@H]1O [Example 80]  6.8 nM
30. OC[C@H]1O[C@@H](c2ccc(Cl)c(Cc3ccc(-c4ccc(F)cc4)s3)c2)[C@H](O)[C@@H](O)[C@@H]1O [Example 70]  7 nM
31. O=C(O)c1ccc(-c2ccc(Cc3cc([C@@H]4O[C@H](CO)[C@@H](O)[C@H](O)[C@H]4O)ccc3Cl)s2)cc1 [Example 192, 1-(β-D-glucopyranosyl)-3-(5-(4-carboxyphenyl)-2-thienylmethyl)-4-chlorobenzene]  7.4 nM
32. Cc1ccc([C@@H]2O[C@H](CO)[C@@H](O)[C@H](O)[C@H]2O)cc1Cc1ccc(-c2ccc(C(F)F)cc2)s1 [Example 176, 1-(β-D-glucopyranosyl)-3-(5-(4-difluoromethylphenyl)-2-thienylmethyl)-4-methylbenzene]  7.7 nM
33. CCOC(=O)c1ccc(-c2ccc(Cc3cc([C@@H]4O[C@H](CO)[C@@H](O)[C@H](O)[C@H]4O)ccc3Cl)s2)cc1 [Example 191, 1-(β-D-glucopyranosyl)-4-chloro-3-(5-(4-ethoxycarbonylphenyl)-2-thienylmethyl)benzene]  7.7 nM
34. OC[C@H]1O[C@@H](c2ccc(Cl)c(Cc3ccc(-c4ccccc4F)s3)c2)[C@H](O)[C@@H](O)[C@@H]1O [Example 69]  7.9 nM
35. CCOc1cccc(-c2ccc(Cc3cc([C@@H]4O[C@H](CO)[C@@H](O)[C@H](O)[C@H]4O)ccc3Cl)s2)n1 [Example 173, 1-(β-D-glucopyranosyl)-4-chloro-3-(5-(6-ethoxy-2-pyridyl)-2-thienylmethyl)benzene]  8 nM
36. Cc1ccc([C@@H]2O[C@H](CO)[C@@H](O)[C@H](O)[C@H]2O)cc1Cc1ccc(-c2cccc(N(C)C)c2)s1 [Example 122, 1-(β-D-glucopyranosyl)-3-(5-(3-dimethylaminophenyl)-2-thienylmethyl)-4-methylbenzene]  8.2 nM
37. Cc1ccc([C@@H]2O[C@H](CO)[C@@H](O)[C@H](O)[C@H]2O)cc1Cc1ccc(-c2cc(F)cc(F)c2)s1 [Example 201]  8.2 nM
38. CCOc1cccc(-c2ccc(Cc3cc([C@@H]4O[C@H](CO)[C@@H](O)[C@H](O)[C@H]4O)ccc3F)s2)c1 [Example 79]  9 nM
39. N#Cc1ccc(-c2ccc(Cc3cc([C@@H]4O[C@H](CO)[C@@H](O)[C@H](O)[C@H]4O)ccc3Cl)s2)cc1F [Example 183, 1-(β-D-glucopyranosyl)-4-chloro-3-(5-(4-cyano-3-fluorophenyl)-2-thienylmethyl)benzene]  9.5 nM
40. OC[C@H]1O[C@@H](c2ccc(Cl)c(Cc3ccc(-c4ccc(C(F)F)cc4)s3)c2)[C@H](O)[C@@H](O)[C@@H]1O [Example 179, 1-(β-D-glucopyranosyl)-4-chloro-3-(5-(4-difluoromethylphenyl)-2-thienylmethyl)benzene]  9.8 nM
